The subject of one series is BXD-1425EPN cells. The settings on record: human, 72 h.
Another series relates to UW228-3 cells. The settings on record: human, 72 h.
A further series relates to brain tumor cell lines. The series is described as follows: IC50 determination through drug-response curves. The format is cell-based. The note with it: range across the brain tumor cell lines.
The next series concerns SF188 cells. The settings on record: human, 72 h.

The values below come from patent US11986647B2, “Treating autoinflammatory and mitochondrial diseases using an alternating electric field” (Novocure GmbH, priority 2018, dated 2024).

Each structure is given as a SMILES string. pIC50: −log10 of the molar value. Values joined by “and” are separate entries in the source; they are usually repeats but may differ in a detail not shown here. Identical values can stand only once.

Description for BXD-1425EPN cells: (§1) Cells were treated with TMZ (Sigma-Aldrich), Paclitaxel (Sigma-Aldrich) and Mebendazole (Sigma-Aldrich) as a monotherapy or in combination with TTFields. Each of the drugs were administered at their IC50 (high dose) or 10% IC50 (low dose), with the IC50s being determined through drug-response curves.
(§2) TTFields were applied using the Inovitro™ system (Novocure, Haifa). The system consists of two pairs of perpendicular transducer arrays on the outer walls of a ceramic Petri dish. A sinusoidal waveform generator was attached to the transducer arrays to produce alternating electric fields at frequencies between 100-400 kHz and 1.75V/cm intensity. The electric fields alternated orientation of 90° every second. The temperature was measured to be 37° C. inside the dishes by 2 thermistors attached to the ceramic walls.
(§3) PrestoBlue™ was added to each sample at a time-point at a 1:10 dilution. Samples were incubated at 37° C. for 30 minutes. 100 μ1 (triplicate) of the PrestoBlue solution was transferred to a black-bottomed 96-well plate and fluorescence was analyzed via UV-Vis Spectroscopy at excitation/emission wavelengths at 560/590 nm with the FLUOstar Omega (BMG Labtech).
Description for SF188 cells: as §1, §2, §3
Description for UW228-3 cells: as §1, §2, §3
Description for brain tumor cell lines: as §1, §3

For the compound `COC(=O)Nc1nc2ccc(C(=O)c3ccccc3)cc2[nH]1` [Mebendazole], the “reduction of cell viability” value with BXD-1425EPN cells was 30%; in the series with UW228-3 cells, 28%; in the series on SF188 cells, 39%. For the same compound, in the series on brain tumor cell lines, the negative-log IC50 (pIC50) (in general, −log10 of the IC50, conventionally taken in molar units) was 5.92 to 7.52 and 5.92 to 7.70.

In the case of `CC(=O)O[C@H]1C(=O)[C@@]2(C)[C@H]([C@H](OC(=O)c3ccccc3)[C@]3(O)C[C@H](OC(=O)[C@H](O)[C@@H](NC(=O)c4ccccc4)c4ccccc4)C(C)=C1C3(C)C)[C@]1(OC(C)=O)CO[C@@H]1C[C@@H]2O` [Paclitaxel], the results for the “reduction of cell viability” value in the series with BXD-1425EPN cells, in the series with UW228-3 cells and with SF188 cells were 23%, 32% and 30%, respectively. Also, in the series on brain tumor cell lines, the pIC50 was 8.34 to 9.44 and 8.34 to 9.40.
